According to patent publication US20240368173A1, “TRICYCLIC GPR65 MODULATORS” (PATHIOS THERAPEUTICS LIMITED, priority 2021, published 2024):

The compounds below were run against human recombinant GPR65 (Homo sapiens, UniProt Q8IYL9) (assay: Human GPR65 cAMP HTRF antagonist assay). Conditions: not given.
Format: cell-based
Text: In one preferred embodiment, the compound prevents the increase in cytoplasmic cAMP levels expected following GPR65 activation at acidic pH. This prevention of cAMP accumulation in turn prevents downstream signalling through ICER, as described above. The “Human GPR65 cyclic adenosine monophosphate (cAMP) Homogeneous Time Resolved Fluorescence (HTRF) antagonist assay”, or simply “cAMP assay”, as described in the accompanying examples, can be used to measure the potency of GPR65 modulators, which is expressed as the concentration of compound required to reduce the increase in cAMP concentration upon GPR65 activation by 50% (i.e. an IC50).
Human GPR65 Cyclic Adenosine Monophosphate (cAMP) Homogeneous Time Resolved Fluorescence (HTRF) Antagonist Assay Procedure
IC50 data was obtained by the following procedure:
1321N1 human astrocytoma cells stably expressing human recombinant GPR65 (1321N1-hrGPR65 cells, EuroscreenFast) were cultured according to the vendor's instructions.
Compounds were tested for their ability to antagonise GPR65, through measuring the concentration of cytoplasmic cAMP following treatment of the cells at a pH of 7.2 to activate GPR65 signalling and addition of the compound to be tested. The extent to which the expected rise in cAMP concentration upon GPR65 activation was suppressed by the added compound is indicative of its potency. The assay was carried out according to EuroscreenFast assay Methodology as follows.
On the day of the assay, test compounds were added to 384-well, low volume, white microtiter plates by acoustic dispensing. KRH buffer (5 mM KCl, 1.25 mM MgSO4, 124 mM NaCl, 25 mM HEPES, 13.3 mM Glucose, 1.25 mM KH2PO4 and 1.45 mM CaCl2) was adjusted to pH 6.5, pH 7.6 and pH 8.4 by adding NaOH. 1321N1-hGPR65 cells were rapidly thawed and diluted in KRH, pH 7.6 prior to centrifugation at 300×g for 5 min and resuspension in assay buffer (KRH, pH 7.6, supplemented with 1 mM 3-isobutyl-1-methylxanthine (IBMX) and 200 μM ethylenediaminetetraacetic acid (EDTA)). Cells were added to assay plates at a density of 2,000 cells per well in a volume of 5 μl. Assay plates were briefly centrifuged at 100×g and then incubated at room temperature for 30 min. Cells were stimulated by the addition of 5 μL KRH, pH 6.5, to achieve an assay pH of 7.2, while control wells received 5 μl KRH, pH 8.4 to achieve an assay pH of 7.9. Assay plates were briefly centrifuged at 100×g and then incubated at room temperature for 30 min.
Accumulation of cAMP was detected by cAMP HTRF kit (Cisbio). d2-labeled cAMP and cryptate-labeled anti-cAMP antibody in Lysis and Detection Buffer (Cisbio) were added to assay plates, and the plates were incubated at room temperature for 1 h. HTRF measurements were performed using a Pherastar FSX instrument. Acceptor and donor emission signals were measured at 665 nm and 620 nm, respectively, and HTRF ratios were calculated as signal665 nm/signal620 nm×10^4. Data were normalised to high and low control values and fitted with 4-parameter logistic regression to determine hGPR65 IC50 values for the test compounds, which are shown in Table 1.

human recombinant GPR65, sequence (Q8IYL9 whole entry): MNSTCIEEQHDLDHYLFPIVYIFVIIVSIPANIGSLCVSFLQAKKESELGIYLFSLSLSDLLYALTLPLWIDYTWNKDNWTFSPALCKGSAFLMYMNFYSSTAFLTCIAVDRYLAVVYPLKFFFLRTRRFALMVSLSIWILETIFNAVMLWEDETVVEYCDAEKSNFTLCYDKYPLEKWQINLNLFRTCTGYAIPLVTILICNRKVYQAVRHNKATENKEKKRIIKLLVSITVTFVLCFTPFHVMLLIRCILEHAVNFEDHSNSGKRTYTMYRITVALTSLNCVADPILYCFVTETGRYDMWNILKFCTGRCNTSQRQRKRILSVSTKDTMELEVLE

`O=C(Nc1cc(Cl)c(Br)cc1F)N1C2CCC1c1n[nH]c(=O)cc1C2` (racemic) [Compound 8, (±)-N-(4-Bromo-5-chloro-2-fluorophenyl)-3-oxo-3,5,6,7,8,9-hexahydro-2H-6,9-epiminocyclohepta[c]pyridazine-10-carboxamide] and `O=C(Nc1cc(Cl)c(Br)cc1F)N1[C@H]2CC[C@@H]1c1n[nH]c(=O)cc1C2` [Compound 32, (6S,9R)-N-(4-Bromo-5-chloro-2-fluorophenyl)-3-oxo-3,5,6,7,8,9-hexahydro-2H-6,9-epiminocyclohepta[c]pyridazine-10-carboxamide] cannot be ordered by IC50: less than 500 nM for the first, less than 500 nM for the second.

`O=C(Nc1cc(Cl)c(-c2ccc(C(F)(F)F)nc2)cc1F)N1[C@H]2CC[C@@H]1c1n[nH]c(=O)cc1C2` [Compound 313, (6S,9R)-N-(5-Chloro-2-fluoro-4-(6-(trifluoromethyl)pyridin-3-yl)phenyl)-3-oxo-3,5,6,7,8,9-hexahydro-2H-6,9-epiminocyclohepta[c]pyridazine-10-carboxamide] and `COCc1ccc(-c2cc(F)c(NC(=O)N3[C@H]4CC[C@@H]3c3n[nH]c(=O)cc3C4)cc2Cl)cn1` [Compound 278, (6S,9R)-N-(5-Chloro-2-fluoro-4-(6-(methoxymethyl)pyridin-3-yl)phenyl)-3-oxo-3,5,6,7,8,9-hexahydro-2H-6,9-epiminocyclohepta[c]pyridazine-10-carboxamide] cannot be ordered by IC50: less than 500 nM for the first, less than 500 nM for the second.

`O=C(Nc1cc(Cl)c(-c2cc(F)cnc2F)cc1F)N1[C@H]2CC[C@@H]1c1c[nH]c(=O)cc1C2` [Compound 252, (6S,9R)-N-(5-Chloro-4-(2,5-difluoropyridin-3-yl)-2-fluorophenyl)-3-oxo-3,5,6,7,8,9-hexahydro-2H-6,9-epiminocyclohepta[c]pyridine-10-carboxamide] and `CCOc1ccc(-c2cc(F)c(NC(=O)N3[C@H]4CC[C@@H]3c3c[nH]c(=O)cc3C4)cc2Cl)cn1` [Compound 272, (6S,9R)-N-(5-Chloro-4-(6-ethoxypyridin-3-yl)-2-fluorophenyl)-3-oxo-3,5,6,7,8,9-hexahydro-2H-6,9-epiminocyclohepta[c]pyridine-10-carboxamide] cannot be ordered by IC50: less than 500 nM for the first, less than 500 nM for the second.

First: O=C(Nc1noc2ccccc12)N1[C@H]2CC[C@@H]1c1n[nH]c(=O)cc1C2 [Compound 187, (6S,9R)-N-(Benzo[d]isoxazol-3-yl)-3-oxo-3,5,6,7,8,9-hexahydro-2H-6,9-epiminocyclohepta[c]pyridazine-10-carboxamide]
Second: O=C(Nc1cc(Cl)c(-c2ccccc2)cc1F)N1[C@H]2CC[C@@H]1c1n[nH]c(=O)cc1C2 [Compound 113, (6S,9R)-N-(2-Chloro-5-fluoro-[1,1′-biphenyl]-4-yl)-3-oxo-3,5,6,7,8,9-hexahydro-2H-6,9-epiminocyclohepta[c]pyridazine-10-carboxamide]
The IC50 of the first is higher: 500 to 5000 nM for the first, less than 500 nM for the second.

`CC(C)COc1ccc(-c2cc(F)c(NC(=O)N3[C@H]4CC[C@@H]3c3c[nH]c(=O)cc3C4)cc2Cl)cn1` [Compound 335, (6S,9R)-N-(5-Chloro-2-fluoro-4-(6-isobutoxypyridin-3-yl)phenyl)-3-oxo-3,5,6,7,8,9-hexahydro-2H-6,9-epiminocyclohepta[c]pyridine-10-carboxamide] and `O=C(Nc1cc(Cl)c(-c2ccc3nsnc3c2)cc1F)N1[C@H]2CC[C@@H]1c1c[nH]c(=O)cc1C2` [Compound 176, (6S,9R)-N-(4-(benzo[c][1,2,5]thiadiazol-5-yl)-5-chloro-2-fluorophenyl)-3-oxo-3,5,6,7,8,9-hexahydro-2H-6,9-epiminocyclohepta[c]pyridine-10-carboxamide] cannot be ordered by IC50: less than 500 nM for the first, less than 500 nM for the second.

`O=C(Nc1ccc(C(F)(F)F)c(Cl)c1)N1C2CCC1c1n[nH]c(=O)cc1C2` (racemic) [Compound 76, (±)-N-(3-Chloro-4-(trifluoromethyl)phenyl)-3-oxo-3,5,6,7,8,9-hexahydro-2H-6,9-epiminocyclohepta[c]pyridazine-10-carboxamide] and `O=C(Nc1cc(Cl)c(-c2cncc(F)c2)cn1)N1[C@H]2CC[C@@H]1c1n[nH]c(=O)cc1C2` [Compound 229, (6S,9R)-N-(4-Chloro-5′-fluoro-[3,3′-bipyridin]-6-yl)-3-oxo-3,5,6,7,8,9-hexahydro-2H-6,9-epiminocyclohepta[c]pyridazine-10-carboxamide] cannot be ordered by IC50: less than 500 nM for the first, less than 500 nM for the second.

`O=C(Nc1cc(Cl)c(C(F)(F)F)cc1F)N1[C@@H]2CC[C@H]1c1ccnc(F)c1[C@H]2F` [Compound 295, (5S,8R,9R)-N-(5-Chloro-2-fluoro-4-(trifluoromethyl)phenyl)-1,9-difluoro-6,7,8,9-tetrahydro-5H-5,8-epiminocyclohepta[c]pyridine-10-carboxamide] and `O=C(Nc1ccc(OC2CCC2)c(Cl)c1)N1[C@H]2CC[C@@H]1c1ccnc(F)c1C2` [Compound 69, (5R,8S)-N-(3-Chloro-4-cyclobutoxyphenyl)-1-fluoro-6,7,8,9-tetrahydro-5H-5,8-epiminocyclohepta[c]pyridine-10-carboxamide] cannot be ordered by IC50: less than 500 nM for the first, less than 500 nM for the second.

Same assay, conditions: 1321N1-hrGPR65 cells, cAMP HTRF, assay pH 7.2; read-out: hGPR65 IC50 (Activity of selected compounds according to the invention)

`O=C(Nc1ccc(OC2COC2)c(Cl)c1)N1[C@H]2CC[C@@H]1c1ccnc(F)c1C2` [Compound 71, (5R,8S)-N-(3-Chloro-4-(oxetan-3-yloxy)phenyl)-1-fluoro-6,7,8,9-tetrahydro-5H-5,8-epiminocyclohepta[c]pyridine-10-carboxamide] and `O=C(Nc1cc(I)c(Cl)cc1F)N1[C@H]2CC[C@@H]1c1ccnc(F)c1C2` [Compound 78, (5R,8S)-N-(4-Chloro-2-fluoro-5-iodophenyl)-1-fluoro-6,7,8,9-tetrahydro-5H-5,8-epiminocyclohepta[c]pyridine-10-carboxamide] fall in the same range of IC50: 500 to 5000 nM for the first, 500 to 5000 nM for the second.

First: O=C(Nc1cc(Cl)c(Cl)cc1F)N1C2CCC1c1ncc(=O)[nH]c1C2 (racemic) [Compound 158, (±)—N-(4,5-Dichloro-2-fluorophenyl)-2-oxo-2,5,6,7,8,9-hexahydro-1H-5,8-epiminocyclohepta[b]pyrazine-10-carboxamide]
Second: O=C(Nc1cc(Cl)c(Cl)cc1F)N1[C@H]2CC[C@@H]1c1c(F)ncc(Cl)c1C2 [Compound 99, (6S,9R)-4-Chloro-N-(4,5-dichloro-2-fluorophenyl)-1-fluoro-6,7,8,9-tetrahydro-5H-6,9-epiminocyclohepta[c]pyridine-10-carboxamide]
The IC50 of the first is higher: greater than 5000 nM for the first, 500 to 5000 nM for the second. The second is the more potent here.

`O=C(Nc1cc(Cl)c(Cl)cc1F)N1[C@H]2CC[C@@H]1c1c(C#CCO)cnc(F)c1C2` [Compound 107, (5R,8S)—N-(4,5-Dichloro-2-fluorophenyl)-1-fluoro-4-(3-hydroxyprop-1-yn-1-yl)-6,7,8,9-tetrahydro-5H-5,8-epiminocyclohepta[c]pyridine-10-carboxamide] and `N#Cc1cnc(F)c2c1[C@H]1CC[C@@H](C2)N1C(=O)Nc1cc(Cl)c(Cl)cc1F` [Compound 160, (5R,8S)-4-Cyano-N-(4,5-dichloro-2-fluorophenyl)-1-fluoro-6,7,8,9-tetrahydro-5H-5,8-epiminocyclohepta[c]pyridine-10-carboxamide] fall in the same range of IC50: 500 to 5000 nM for the first, 500 to 5000 nM for the second.

`Nc1ccc(-c2cc(F)c(NC(=O)N3[C@H]4CC[C@@H]3c3n[nH]c(=O)cc3C4)cc2Cl)cn1` [Compound 118, (6S,9R)-N-(4-(6-Aminopyridin-3-yl)-5-chloro-2-fluorophenyl)-3-oxo-3,5,6,7,8,9-hexahydro-2H-6,9-epiminocyclohepta[c]pyridazine-10-carboxamide] and `COCc1cncc(-c2cc(F)c(NC(=O)N3[C@H]4CC[C@@H]3c3n[nH]c(=O)cc3C4)cc2Cl)c1` [Compound 280, (6S,9R)-N-(5-Chloro-2-fluoro-4-(5-(methoxymethyl)pyridin-3-yl)phenyl)-3-oxo-3,5,6,7,8,9-hexahydro-2H-6,9-] fall in the same range of IC50: 500 to 5000 nM for the first, 500 to 5000 nM for the second.

`O=C(Nc1ccc(Cl)c(Br)c1)N1[C@@H]2CC[C@H]1c1n[nH]c(=O)cc1C2` [Compound 50, (6R,9S)-N-(3-Bromo-4-chlorophenyl)-3-oxo-3,5,6,7,8,9-hexahydro-2H-6,9-epiminocyclohepta[c]pyridazine-10-carboxamide] showed an IC50 greater than 5000 nM.
